Data set [1] relates to HaCaTs. Description: 2D scratch migration assay, HaCaT. It is filed as cell-based, human. The conditions noted are these: high glucose and TGFβ1, 48 hours. The procedure:
(§1) HDFs, HaCaTs, and HAECs were cultured in 6-well plates using serum-free high glucose (4.5 g/L) basal medium with 1% P/S. After the cells reached confluency, a 200-μL pipet tip was used to scrape the cell monolayer. Then 3 mL of medium containing TGFβ1 (10 ng/ml) or TGFβ1 (10 ng/ml)/PTβR2I (10 μg/mL) was added to the wells. The cells were imaged at predetermined time points using a bright-field microscope. The distances between the scratch walls were measured using ImageJ to calculate the migration ratio

Data set [2] deals with HAECs. In words: Endothelial cell lumen formation in 3D collagen gel. It is filed as cell-based, human. Particulars: high glucose and TGFβ1. The method, then: A 3D collagen gel model was used to evaluate endothelial cell lumen formation under high glucose and TGFβ1 conditions. Briefly, the collagen gel was formed by mixing 4 mg/ml of rat tail type I collagen solution (Life Technologies), FBS, DMEM, and NaOH. Then 500 μL of the mixture was transferred to a 48-well plate and placed in a 37° C. incubator for 30 minutes to allow gelation. HAECs were then seeded into the collagen gel at a density of 2×10^4 cells/well. TGFβ1 (10 ng/ml) or TGFβ1 (10 ng/ml)/PTβR2I (10 μg/mL) was then added. After three days of culturing, cells were stained with F-actin (Abcam, ab176753) and DAPI (Millipore-Sigma). The constructs were imaged by
Olympus FV1200 confocal microscopy with z-stack mode. The lumen density was calculated from the images.

The subject of data set [3] is HAECs. In words: Cell proliferation (dsDNA) under high glucose and TGFβ1, HAEC. Format: cell-based, human. Particulars: high glucose, TGFβ1 10 ng/ml, PTβR2I 10 μg/mL; p<0.05. The method, then: (§2) HDFs, HaCaTs, and HAECs were seeded in 96-well plates at respective densities of 1.5×10^4 cells/mL, 2×10^4 cells/mL, and 2×10^4 cells/mL. High glucose (4.5 g/L) basal medium with 1% P/S was used for the culture. After 24 hours, TGFβ1 (10 ng/ml) or TGFβ1 (10 ng/ml)/PTβR2I (10 μg/mL) was added to the medium. The culture continued for three days. The medium was then replaced by papain solution and incubated at 60° C. for 24 hours. The dsDNA content was tested using a Quant-iT™ PicoGreen dsDNA Assay Kit (Invitrogen).

Data set [4] concerns HDFs. Description: 2D scratch migration assay, HDF. Format: cell-based, human. Particulars: high glucose and TGFβ1, 72 hours. The method, then:
as §1

The test system of data set [5] is HAECs. Description: mRNA expression (RT-PCR), HAECs. The conditions noted are these: high glucose and TGFβ1. Format: cell-based, human. The method, then:
(§3) To determine the mRNA expression of the cells (HDFs, HaCaTs, and HAECs) treated with TGFβ1 (10 ng/ml) or TGFβ1 (10 ng/ml)/PTβR2I (10 μg/mL) under high glucose conditions, RNA was extracted using Trizol (Invitrogen) and reverse transcribed using a cDNA synthesis kit (Applied Biosystems). Gene expression was performed by real-time RT-PCR, using Maxima SYBR Green/Fluorescein Master Mix (Thermofisher) and selected primer pairs, shown in Table 1 below. β-actin served as the housekeeping gene. The ΔΔCt method was used for data analysis.

For data set [6], the system named is HAECs. In words: 2D scratch migration assay, HAEC. Particulars: high glucose and TGFβ1, 36 hours. It is filed as cell-based, human. The procedure:
as §1

The test system of data set [7] is human aortic endothelial cells (HAEC). In words: Cytotoxicity of PTβR2I on endothelial cells. It is filed as cell-based. Also on record: dose or concentration left out as unconfirmed.
Another data set concerns the target T1, TβR2 on the HDFs (Homo sapiens, UniProt P37173).
T1 construct: host or cells: human dermal fibroblasts (HDFs)
Description: Bioactivity of released PTβR2I (cell binding assay on HDFs). It is filed as cell-based. Particulars: released on days 3, 8, 14; loadings 10, 20, 50 μg/mL. The procedure: Wound dressings were fabricated by encapsulating PTβR2I in the hydrogel solution at 4° C. Briefly, PTβR2I solution was mixed with 6 wt. % hydrogel solution to reach final PTβR2I concentrations of 10 μg/mL, 20 μg/mL and 50 μg/mL. The mixtures were stirred at 4° C. for 12 hours. To determine PTβR2I release kinetics, the mixtures were first incubated at 37° C. to gel. After 1 hour, the supernatant was replaced by a release medium (DPBS with 1% P/S). The medium was then collected at pre-determined time points for 21 days, and a fresh release medium was added after each collection. The concentration of the released PTβR2I was determined by measuring the fluorescence intensity and calculating the corresponding concentration using a standard curve. The bioactivity of the released PTβR2I was evaluated by its ability to bind to the TβR2 on the HDFs. The collected released medium was added to the culture medium of HDFs that were seeded in a 96-well plate. After 2 hours of incubation, the cells were washed three times with DPBS, and the fluorescence intensity was measured using a microplate reader (excitation/emission=485/535 nm).

In another data set the test system is HDF. In words: Cytotoxicity of PTβR2I on dermal fibroblasts. Format: cell-based, human. Set-up: dose or concentration left out as unconfirmed. The conditions noted are these: 1 to 100.
For data set [8], the system named is HaCaTs. Description: Cell proliferation (dsDNA) under high glucose and TGFβ1, HaCaT. Format: cell-based, human. Particulars: high glucose, TGFβ1 10 ng/ml, PTβR2I 10 μg/mL; p<0.05. The procedure:
as §2

Another data set relates to wounds of db/+ mice. In words: Wound assay on non-diabetic db/+ mice. The conditions noted are these: mouse, in vivo. The method, then:
The same wound assay was performed on db/+ mice and monitored the wound closure for eight days (FIG. 11A). The No-treatment, Gel, and PTβR2I/Gel groups all had similar healing rates, with wound sizes less than 10% of the original after 8 days (FIG. 11B and C). To delineate the mechanism, in vitro immunoblotting was performed on dermal fibroblasts under normal glucose conditions that mimicked the microenvironment of db/+ mice (FIG. 11D).

Data set [9] relates to HDFs. In words: Cell proliferation (dsDNA) under high glucose and TGFβ1, HDF. It is filed as cell-based, human. Particulars: high glucose, TGFβ1 10 ng/ml, PTβR2I 10 μg/mL; p<0.001. The method, then: as §2
The subject of data set [10] is HDFs. In words: mRNA expression (RT-PCR), HDFs. It is filed as cell-based, human. Particulars: high glucose and TGFβ1. The method, then:
as §3

Bridge positions count the residues as written; N and C are the ends. Peptide text beside a SMILES is read from it. * marks the point of attachment. FITC = O=C1OC2(c3ccc(O)cc3Oc3cc(O)ccc32)c2ccc(NC(=S)*)cc21

T1 sequence (P37173 23-567): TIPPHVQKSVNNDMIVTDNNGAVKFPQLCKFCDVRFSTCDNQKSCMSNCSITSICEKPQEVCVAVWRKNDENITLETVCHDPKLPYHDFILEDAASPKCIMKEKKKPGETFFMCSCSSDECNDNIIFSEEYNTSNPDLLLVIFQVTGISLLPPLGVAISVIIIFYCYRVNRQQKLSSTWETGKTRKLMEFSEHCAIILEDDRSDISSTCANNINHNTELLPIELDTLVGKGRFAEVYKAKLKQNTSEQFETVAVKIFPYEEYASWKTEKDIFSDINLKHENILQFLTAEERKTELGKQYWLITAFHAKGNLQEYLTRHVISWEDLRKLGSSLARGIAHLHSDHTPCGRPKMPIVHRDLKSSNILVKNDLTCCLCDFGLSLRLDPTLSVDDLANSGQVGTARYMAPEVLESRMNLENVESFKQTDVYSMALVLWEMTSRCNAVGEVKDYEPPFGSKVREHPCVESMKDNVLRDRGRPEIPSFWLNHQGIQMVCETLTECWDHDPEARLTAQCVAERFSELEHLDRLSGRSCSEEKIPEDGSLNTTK

For the molecule `CC(C)C[C@@H]1NC(=O)CNC(=O)[C@@H](NC(=O)[C@@H](N)CCC(=O)O)CSSC[C@@H](C(=O)N[C@@H](CCCCNC(=S)Nc2ccc3c(c2)C(=O)OC32c3ccc(O)cc3Oc3cc(O)ccc32)C(=O)O)NC(=O)[C@H](CC(C)C)NC(=O)[C@H](CCCNC(=N)N)NC(=O)[C@H](Cc2c[nH]c3ccccc23)NC(=O)[C@H](C(C)C)NC(=O)[C@H](CCCNC(=N)N)NC(=O)[C@H](CC(=O)O)NC(=O)[C@@H]2CCCN2C(=O)[C@H](CCCNC(=N)N)NC(=O)CNC(=O)[C@H](C(C)C)NC(=O)[C@@H]2CCCN2C(=O)[C@H](CC(C)C)NC1=O` [PTβR2I, ECGLLPVGRPDRVWRLCK-FITC] (H-ECGLLPVGRPDRVWRLCK(FITC)-OH; disulfide 2-17; N-terminus and C-terminus assumed), the migration entry with HaCaTs [1], with HDFs [4] and in the data set on HAECs [6] was “significantly higher number of cells had migrated” each time. Further, the lumen density result in the data set with HAECs [2] was “significantly increased the lumen density”. For the same molecule, the “proliferation (dsDNA, day 3)” value in the data set with HAECs [3], in the data set on HaCaTs [8] and with HDFs [9] was “Significantly improved proliferation” in each case. Besides, the HGF gene expression entry in the data set with HAECs [5] is “significantly enhanced”. Moreover, the VEGFA gene expression result in the data set with HAECs [5] is “significantly enhanced”. Further, the cell viability entry (in data set [7]; in the data set on HDF) was “no decrease in viability” in each case. The “bioactivity of released PTβR2I” value on TβR2 on the HDFs is recorded as “remained bioactive”. The “efficacy on db/+ mice” value in the data set on wounds of db/+ mice is listed as “not effective”. For the same molecule, in the data set on HDFs [10], the IGF1 expression entry is reported as “significantly upregulated”. Further, the “IL1B mRNA expression” value in the data set with HDFs [10] is recorded as “significantly reduced”. In addition, in the data set on HDFs [10], the “IL6 mRNA expression” value was “significantly reduced”. Also, the “TNFA mRNA expression” value in the data set on HDFs [10] was “significantly reduced”.
